“Also recorded” adds a separate entry of the source.
What was measured:
[1] = test system: Atoh1-ER-DsRed fusion protein; assay: Nuclear translocalization assay (DsRed fluorescence of isolated nuclei); type: cell-based; conditions: for DsRed fluorescence in the nuclear fraction: HEK cells transfected with CMV-Atoh1-ER-DsRed, p<0.05; for localization of Atoh1-ER-DsRed to the nucleus: HEK cells, graded doses; for time to complete cytoplasmic localization of the fusion protein after removal from the culture media: removal of 4OHT/tamoxifen from culture media
Protocol: Constructs were generated to express inducible Atoh1-ER fusion proteins (FIG. 1).
HEK cells were cultured until 50% confluent in 6-well culture dishes (type) then subjected to transfection using 3:1 target DNA to Fugene 6 Transfection Reagent (ROCHE). […] Cells were then processed for cytosolic and nuclear fractionation (BioVision). The isolated nuclear fraction collected from each of 5 sample wells per condition was mounted to a coverslip and average pixel density from 5 regions of interest (206.5×165.2 pixel at 20× magnification) was measured with a Cy3 ([…]) filter on a Zeiss epifluorescent microscope using MetaMorph software.

[2] = test system: Atoh1-ER-DsRed fusion protein; assay: Nuclear localization in electroporated cochlear spheres; type: cell-based, mice
Description: (DAPI=blue; DsRed fluorescence=red). […] Yellow box highlights optimal conditions (+=nuclear localization in […] of cells; −/+≈50% nuclear localization; −=>0.10% nuclear localization.
Cochlear derived progenitor cells were generated and floating aggregates (cochlear spheres) propagated as previously described (Oshima et al., Journal of the Association for Research in Otolaryngology, 2007. 8(1): 18-31) with the following modifications. Cochleas were isolated from litters of P0-P3 ROSA26-GFP mice, the organs of Corti were dissected, pooled, trypsinized, triturated, and centrifuged. The pellet was re-suspended in SFM, filtered through a […] cell strainer, and cultured for 5 days in this same media supplemented with growth factors (10 ng/ml of FGF, IGF, EGF, Heparin sulfate). Floating aggregates were collected, centrifuged, triturated using a 100 μl pipette, re-suspended in 300 μl Optimem, and electroporated (8 pulses; 25 V; duration, 50 ms; interval, 100 ms with 2 mg/ml DNA in water, and incubated in 3:1 Fugene 6 overnight) using 50 μg of plasmid DNA. […] Finally, spheres from each of these groups were centrifuged, adhered to glass coverslips by incubation for 2-4 hours at 37° C. on glass coverslips coated with 1:1 poly-lysine/polyornithine, fixed in 4% paraformaldehyde for 20 minutes, washed three times in PBS, and stored at 4° C. for later analysis.

Atoh1 protein = assay: Western blot analysis of Atoh1 protein; type: cell-based; conditions: transiently transfected HEK cells; different doses for 72 hr
Description: Whole cell protein was collected and processed for Western blot analysis. Positive control samples were transfected with a flag-tagged Atoh1 construct under control of a cmv promoter (flagAtoh1) and negative control samples were transfected with the DsRedER construct.
Control samples were similarly transfected with either DsRed-ER (negative control) or a positive control vector (cmv.flagAtoh1). Cells were lysed, the whole cell protein was collected and processed for Western blot analysis using either anti-Atoh1polyclonal antibody (Developmental Studies Hybridoma Bank) or a polyclonal anti-b-actin antibody (Sigma).

myosin 7a = assay: Myosin 7a immunolabeling in transfected HEI OC1 cells; type: cell-based
Protocol: To test this, the expression of myosin 7a, which is a downstream target of Atoh1 signaling, was measured in HEI OC1 cells transfected with the Atoh1-ER-DsRed construct.

[3] = test system: Atoh1 5′ enhancer/promoter region; assay: Luciferase assay of Atoh1 enhancer/promoter binding; type: cell-based; conditions: HEK cells stably transfected with Atoh1enhancer-luciferase and transiently with Atoh1-ER-DsRed; 72 hrs, increasing doses
Protocol: The stably transfected HEK cells were transiently transfected with either the cmv.Atoh1-ER-DsRed construct or a cmv.DsRed-ER control construct. […] All cells were also co-transfected with Renilla transfection controls.
The Atoh1 5′ enhancer/promoter region (Helms, Abney et al. 2000) was cloned into the MCS of the pGL3-Promoter Luciferase Reporter Vector (Promega), and was stably expressed on a HEK cell line using selection to […]. These cells were grown until 80% confluent on 6-well plates, and then transiently transfected with either the cmv.Atoh1 control vector, the cmv.Atoh1-ER-DsRed construct, or a cmv.DsRed-ER negative control construct using 3:1 target DNA to Fugene 6 Transfection Reagent. All cells were also co-transfected with Renilla transfection controls. […] Firefly luciferase activity was measured in a manual TD-20/20 Luminometer (Turner Designs).

Atoh1 mRNA = Atoh1 mRNA expression by RT-PCR and qPCR; type: cell-based; conditions: HEK cells transiently transfected with Atoh1-ER-DsRed; different doses
Protocol: Transiently transfected HEK cells were incubated with different doses of 4OHT.
Next, total RNA was extracted from the cells by adding 1 ml Trizol reagent (Invitrogen) to each well for 5 min, cells were scraped into a 1.5 ml tube (1 tube/well), incubated with […] chloroform (in hood) for 2 min centrifuged for 20 min at 12,000 g at 4° C., supernatant was collected in a new 1.5 ml tube, incubated with 1:1 equivalent volume of 2-propanol equal volume to supernatant, and centrifuged through the RNeasy mini kit columns at 8000 g for 15 sec. RNA was eluted from the column by adding […] RW1, centrifuging the column at 8000 g 15 s, adding […] washes of RPE2 and re-centrifuging at 8000 g 15 s, adding one spin to dry membrane (10,000 g, 1 min), and eluting the RNA by adding […] RNAse free water into new 1.5 ml tube and centrifuging a final time at 8000 g for 15 s. […]
For quantitative PCR (qPCR) analysis, 300 μL of qPCR Master Mix (Invitrogen) was added to a PCR tube with 300 μL dH2O, which was then divided into 5 tubes (120 μL each). […] Quantitative PCR was performed and the amount of RNA was determined Delta delta Ct measurements were calculated for each treatment group, and then were normalized to fold change from groups incubated in the absence of tamoxifen. […]

[4] = test system: alpha and beta isoforms of the estrogen receptor; conditions: cited from earlier work
organs of Corti = assay: Organ of Corti explants electroporated with the construct; type: cell-based, mice; conditions: 1 μM tamoxifen
Description: The construct was electroporated into neonatal organs of Corti isolated from transgenic mouse pups that express GFP under control of the 5′ Atoh1 enhancer/promoter.

Atoh1 promoter/enhancer = assay: Comparison of constructs (Atoh1 promoter/enhancer binding, mRNA transcription, protein translation); type: cell-based
Description: FIG. 1A-FIG. 1E are schematics depicting constructs used to generate an inducible Atoh1 fusion protein. FIG. 1A depicts the construct termed Flag-Atoh1-ER-DsRed. In order to measure the translocation of the fusion protein between the cytoplasm and […], a construct was engineered to include the DsRed transgene. To aid in the detection of Atoh1 (Atonal homolog 1), several experimental constructs were engineered to include one or two consecutive flag-tagged sequences (Vallier, Mancip et al. 2001). To obtain the tamoxifen sensitive Atoh1 construct, PCR cloning primers were designed so that 1) an EcoRI site was placed on the 5′ end and a Kozac sequence (CACC) was placed upstream of the Atoh1 start codon; 2) the Atoh1 stop codon (TAG) was deleted; 3) the flag tagged Atoh1 sequence was linked to an Estrogen Receptor (ER) sequence by the sequence […] (SEQ ID NO: 1) encoding a polypeptide linker; 4) the ER stop codon (TAG) was deleted; 5) the ER sequence was linked to a DsRed sequence by the sequence […] (SEQ ID NO: 2) encoding a polypeptide linker; and 6) a Not I site was included on the 3′ end. The linker sequences were designed to translate into multiple proline sequences, which provide an increased degree of freedom for the fusion protein subunits. […]

## CC/C(=C(\c1ccc(O)cc1)c1ccc(OCCN(C)C)cc1)c1ccccc1 [4OHT]
[1]; 1 nM 4OHT for 72 hrs
  DsRed fluorescence in the nuclear fraction: 848.0+/−29.33 au
[1]; 1 mM 4OHT for 72 hrs
  DsRed fluorescence in the nuclear fraction: 3,200.9+/−156.95 au
[1]
  localization of Atoh1-ER-DsRed to the nucleus: dose-dependent manner
  time to complete cytoplasmic localization of the fusion protein after removal from the culture media: ≤ 2 weeks
[2]; cochlear spheres from ROSA26-GFP mice, 1 nM, after 48 hrs
  nuclear localization of the fusion protein: punctate nuclear localization
[2]; for 2-7 days (FIG. 3)
  minimum effective dose: 1 nM
Atoh1 protein
  Atoh1 protein levels: increased the concentration of cytosolic Atoh1 protein in a dose-dependent manner; also recorded: increase in Atoh1 protein levels
Myosin 7a; HEI OC1 cells transfected with Atoh1-ER-DsRed, differentiating conditions (39° C.), 1 mM 4OHT for three days, p<0.001 vs vehicle
  myosin 7a labeling: 79%
[3]
  binding to / activation of the enhancer/promoter region of the Atoh1 gene: dose-dependent increase; also recorded: induced activation of the Atoh1 enhancer region
Atoh1 mRNA
  Atoh1 mRNA expression: upregulates the expression of Atoh1 in a dose-dependent manner; also recorded: increase in Atoh1 mRNA expression

## C[C@]12CC[C@@H]3c4ccc(O)cc4CC[C@H]3[C@@H]1CC[C@@H]2O [17-beta-estradiol]
[4]
  preference of binding to estrogen receptor isoforms: binds equally well to both receptors

## CC/C(=C(\c1ccccc1)c1ccc(OCCN(C)C)cc1)c1ccccc1 [tamoxifen]
Organs of Corti
  hair cells in electroporated organs of Corti: supernumerary hair cells
[1]; 1 μM
  DsRed fluorescence against increasing Tamoxifen concentration: increased fluorescence compared to higher (100 μM) and lower doses (1 nM)
[1]
  localization of Atoh1-ER-DsRed to the nucleus: dose-dependent localization
  time to complete cytoplasmic localization of the fusion protein after removal from the culture media: ≤ 2 weeks
[1]; for 2-7 days, HEK cells (FIG. 2)
  minimum effective dose: 1 nM
Myosin 7a; OC1 cells transfected with Atoh1-ER-DsRed, 3 days in differentiating conditions (39° C.)
  myosin 7a positive cells within the spheres: significant increase
[3]
  binding to / activation of the enhancer/promoter region of the Atoh1 gene: dose-dependent increase in binding
Atoh1 mRNA
  Atoh1 mRNA expression: increased the expression of Atoh1 in a dose-dependent manner

## O=C(c1ccc(OCCN2CCCCC2)cc1)c1c(-c2ccc(O)cc2)sc2cc(O)ccc12 [raloxifene]
[4]
  preference of binding to estrogen receptor isoforms: bind preferentially to the alpha receptor

## O=c1c(O)c(-c2ccc(O)c(O)c2)oc2cc(O)cc(O)c12 [Quercetin]
[4]
  preference of binding to estrogen receptor isoforms: selectively binds to the estrogen receptor beta (ERβ)

## Flag-Atoh1-ER: construct encoding a flag-tagged Atoh1-ER fusion protein without DsRed (SEQ ID NO: 16)
Atoh1 promoter/enhancer
  Atoh1 promoter/enhancer binding, Atoh1 mRNA transcription and Atoh1 protein translation compared with the flag-Atoh1-ER-DsRed construct: on average higher than, but not significantly different from

Reference: patent US20140134136A1, “COMPOSITIONS AND METHODS FOR AUDITORY THERAPY” (MASSACHUSETTS EYE AND EAR INFIRMARY, priority 2012, published 2014)
